The structures appear in SMILES notation. Read-outs that look alike come from different tables or passages of the source.

The values below come from US8486374B2, “Hydrophilic, non-aqueous pharmaceutical carriers and compositions and uses” (Foamix Ltd., priority 2004, dated 2013).

Data set [1] in a line: Solubility of the active agent in solvents/carriers. Type of data set: physicochemical. To be noted: in the polyol and DMI mixture (Example 19 composition).
Data set [2] in a line: Foam appearance (color, odor, form). Type of data set: physicochemical. Also on record: key to ODOR: No odor (N.O.); key to COLOR: white (W).
Data set [3] in a line: Shakability of the composition. Type of data set: physicochemical. The text has this: ‘Shakability’ means that the composition contains some or sufficient flow to allow the composition to be mixed or remixed on shaking. That is, it has fluid or semi fluid properties. A breakable foam is that is thermally stable, yet breaks under sheer force.
‘Shakability’ means that the composition contains some or sufficient flow to allow the composition to be mixed or remixed on shaking. That is, it has fluid or semi fluid properties. In some very limited cases it may still be possible to have a foamable composition which is flowable but not apparently shakable.

The nature of data set [4]: Foam quality grading upon release from the aerosol container. Type of data set: physicochemical. To be noted: active agent in stock of PEG-400 97.5, hydroxypropyl cellulose 0.5, steareth 2 2.0 (first Example 29). The text has this: Foam quality can be graded as follows:
Grade FG (fairly good): a moderate amount of creaminess noticeable, bubble structure is noticeable; upon spreading on the skin the product dulls rapidly and becomes somewhat lower in apparent viscosity.
Grade F (fair): very little creaminess noticeable, larger bubble structure than a “fairly good” foam, upon spreading on the skin it becomes thin in appearance and watery.
Grade P (poor): no creaminess noticeable, large bubble structure, and when spread on the skin it becomes very thin and watery in appearance.
Grade VP (very poor): dry foam, large very dull bubbles, difficult to spread on the skin.

For data set [5] the following is noted: cited from earlier work.
The next data set concerns candida albicans. As to the kind of experiment: Comparative in-vitro antifungal activity (Petri dish spreading). Type of data set: cell-based. From the text:
An exemplary case for the inclusion of an anti-infective agent in a hygroscopic composition is provided herewith. […] Thus, combining an antifungal agent in a hygroscopic composition results in an expansion of the spectrum of infective strains that can benefit form the therapy, and furthermore, in can render an improved effect of such a composition on mixed infections or in infections that are not accurately diagnosed.
A comparative in-vitro study was set to evaluate the effect of Composition A, consisting of 2% terbinafine, 95.3% gr. polyethylene glycol, 0.5% hydroxypropyl cellulose and 2.2% steareth-2, in comparison with Composition B (an oil in water emulsion containing 2% terbinafine) and Composition C a commercial 1% bifonazole cream.
Three fungal strains (microsporum canis, trichophyton mentagrophytes and trichophyton rubrum) and one yeast (candida albicans) were seeded in the center of a Petri dish, and then, were surrounded by a film containing each of the compositions, using a swab, soaked with each of the compositions. The proliferation and spreading of the microorganisms was followed up for 14 day by visual and photographic observations.

Setting [6] is: active agent in stock of PEG-400 97.5, hydroxypropyl cellulose 0.5, steareth 2 2.0 (first Example 29).
[7] abbreviates: active agent in stock of propylene glycol 46, glycerin 33, dimethyl isosorbide 15, stearyl alcohol, hydroxypropyl cellulose, laureth-4, GMS/PEG 100 stearate (Example 30).
Setting [8] is: active agent in stock of propylene glycol 91, stearyl alcohol 2, Klucel EF 2, laureth-4 2, glyceryl monostearate/PEG 100 stearate 3 (second Example 29).

For `Nc1nc2c(ncn2COCCO)c(=O)[nH]1` [Acyclovir], the solubility entry in data set [1] is “not fully soluble”. Besides, the COLOR result was “W” in data set [2] (setting [6]), “O.W” in data set [2] (setting [7]) and “O.W” in data set [2] (setting [8]). The ODOR result in data set [2] (setting [6]), in data set [2] (setting [7]) and in data set [2] (setting [8]) was “N.O” in each case. Besides, the SHAKABILITY result in data set [3] (setting [6]), in data set [3] (setting [7]) and in data set [3] (setting [8]) was “Yes” throughout.
Turning to `O=C(O)Cc1ccccc1Nc1c(Cl)cccc1Cl` [Diclofenac sodium], the COLOR result in data set [2] (setting [6]), in data set [2] (setting [7]) and in data set [2] (setting [8]) was “W” throughout. Also, the ODOR entry in data set [2] (setting [6]), in data set [2] (setting [7]) and in data set [2] (setting [8]) was “N.O” each time. The SHAKABILITY entry in data set [3] (setting [6]), in data set [3] (setting [7]) and in data set [3] (setting [8]) was “Yes” throughout. For the same compound, the QUALITY result in data set [4] is listed as “G+”.
Turning to `C/C(=C\C(=O)OCCCCCCCCC(=O)O)C[C@@H]1OC[C@H](C[C@@H]2O[C@H]2[C@@H](C)[C@H](C)O)[C@@H](O)[C@H]1O` [Mupirocin], the solubility entry in data set [5] (in mineral oil and other commonly used ointment solvents) is “practically insoluble”. The COLOR entry in data set [2] (setting [6]) and in data set [2] (setting [8]) was “W” each time. For the same compound, the ODOR result in data set [2] (setting [6]) and in data set [2] (setting [8]) was “N.O” each time. In addition, the SHAKABILITY entry in data set [3] (setting [6]) and in data set [3] (setting [8]) was “Yes” throughout.
As for `CN(C/C=C/C#CC(C)(C)C)Cc1cccc2ccccc12` [terbinafine], the “inhibition of the spreading of candida albicans” value in the data set on candida albicans (control preparation, same concentration in an emulsion base) is listed as “not effective”; in the data set with candida albicans (dissolved in a hygroscopic carrier), “effectively inhibited the spreading”. Further, the solubility entry in data set [5] (in common formulation excipients) is on record as “hard to dissolve”.
